Data on 39 molecules can be found in patent US20250262201A1, “COMPOUNDS AND METHODS USEFUL FOR STABILIZING PHENYLALANINE HYDROXYLASE MUTATIONS” (Agios Pharmaceuticals, Inc., priority 2022, published 2025).

Where two headings read alike, the source gives them in different places.

For this assay, the target named is T1, human PAH with the R408W mutation (Homo sapiens, UniProt P00439, R408W).
T1 construct: expressed in transfected cells
T1 sequence (P00439 1-452 R408W): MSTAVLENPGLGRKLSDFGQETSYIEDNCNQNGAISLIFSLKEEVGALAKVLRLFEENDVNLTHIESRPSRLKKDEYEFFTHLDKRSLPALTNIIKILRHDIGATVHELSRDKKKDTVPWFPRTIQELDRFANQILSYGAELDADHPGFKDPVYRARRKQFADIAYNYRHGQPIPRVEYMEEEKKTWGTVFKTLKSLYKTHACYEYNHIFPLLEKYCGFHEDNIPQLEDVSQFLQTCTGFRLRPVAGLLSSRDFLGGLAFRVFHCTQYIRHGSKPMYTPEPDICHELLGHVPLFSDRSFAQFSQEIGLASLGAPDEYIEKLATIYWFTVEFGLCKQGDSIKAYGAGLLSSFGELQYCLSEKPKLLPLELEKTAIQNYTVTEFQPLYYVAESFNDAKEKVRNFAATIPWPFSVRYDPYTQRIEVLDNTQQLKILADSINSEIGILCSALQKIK
The experiment in a line: Cell Based Phenylalanine Flux Assay. Particulars: 13C-Tyrosine by LC-MS, average where tested multiple times. Also on record: scale not given here.

Where [1] appears, read: A375 R408W cells, 24 hrs with compound, then 20 μM sepiapterin and 800 μM 13C9,15N-Phenylalanine for 4 hours, read-out: AC50.
Where [2] appears, read: A375 cells expressing human R408W PAH, 24 hrs compound incubation, read-out: AC50.

For orientation: AC50 means the concentration giving half of the maximal activity seen. As to `CC(C)(O)c1nnc(C(=O)N2CCc3[nH]cnc3C2c2ncc3ccccc3n2)o1` (stereo not drawn), under setting [1], the concentration at half-maximal activity (AC50) fell in the range of 1000 to 5000 nM. In the case of `O=C(c1nnc(-c2ccccn2)o1)N1CCc2[nH]cnc2C1c1ccc2ccccc2n1` (stereo in doubt) [Example 46, (S)-(5-(pyridin-2-yl)-1,3,4-oxadiazol-2-yl)(4-(quinolin-2-yl)-6,7-dihydro-1H-imidazo[4,5-c]pyridin-5(4H)-yl)methanone], the AC50 under setting [2] was greater than 5000 nM. Consider `COCCNc1nnc(C(=O)N2CC(C)c3[nH]cnc3C2c2cc3ccccc3cn2)o1` (stereo not drawn), for which the AC50 under setting [1] was in the range of 1000 to 5000 nM. Consider `Cn1cc(C(=O)N2CCc3[nH]cnc3[C@@H]2c2ccc3ccccc3n2)c(Cl)n1` [Example 87], for which the AC50 under setting [2] is 1000 to 5000 nM.

As for `O=C(c1nnc(-c2ccncc2)o1)N1CCc2[nH]cnc2[C@H]1c1cc2ccccc2cn1` [Example 448, (R)-(4-(isoquinolin-3-yl)-6,7-dihydro-1H-imidazo[4,5-c]pyridin-5(4H)-yl)(5-(pyridin-4-yl)-1,3,4-oxadiazol-2-yl)methanone], under setting [2], the AC50 is less than 500 nM.

On to `CC(C)(F)c1nnc(C(=O)N2CCc3[nH]cnc3[C@H]2c2cc3ccccc3nn2)o1` [Example 218, (S)-(4-(cinnolin-3-yl)-6,7-dihydro-1H-imidazo[4,5-c]pyridin-5(4H)-yl)(5-(2-fluoropropan-2-yl)-1,3,4-oxadiazol-2-yl)methanone], for which the AC50 under setting [2] was in the range of 500 to 1000 nM. On the same count and under the same terms, in the case of `C[C@H](O)c1nc(C(F)F)c(C(=O)N2CCc3[nH]cnc3C2c2ccc3ccccc3n2)o1` (stereo in doubt) [Example 122, (4-(difluoromethyl)-2-((S)-1-hydroxyethyl)oxazol-5-yl)((R)-4-(quinolin-2-yl)-6,7-dihydro-1H-imidazo[4,5-c]pyridin-5(4H)-yl)methanone] it was less than 500 nM; in that of `Cn1nc(C(=O)N2CCc3[nH]cnc3[C@H]2c2cc3ccccc3cn2)c2ccccc21` [Example 360, (R)-(4-(isoquinolin-3-yl)-6,7-dihydro-1H-imidazo[4,5-c]pyridin-5(4H)-yl)(1-methyl-1H-indazol-3-yl)methanone], less than 500 nM. Take `CN(C)Cc1ccc2c(C(=O)N3CCc4[nH]cnc4[C@H]3c3cc4ccccc4cn3)cnn2c1` [Example 330, (R)-(6-((dimethylamino)methyl)pyrazolo[1,5-a]pyridin-3-yl)(4-(isoquinolin-3-yl)-6,7-dihydro-1H-imidazo[4,5-c]pyridin-5(4H)-yl)methanone]: the AC50 under setting [2] was less than 500 nM. On to `CN1CCN(c2nnc(C(=O)N3CCc4[nH]cnc4C3c3ncc4ccccc4n3)o2)CC1` (stereo not drawn), for which the AC50 under setting [1] lay within 1000 to 5000 nM.

Consider `CC(O)c1nc(Br)c(C(=O)N2CCc3[nH]cnc3[C@H]2c2ccc3ccccc3n2)o1` (single isomer, unassigned) [Example 133], for which the AC50 under setting [2] is less than 500 nM. As to `Cc1nc(C2(O)CC2)oc1C(=O)N1CCc2[nH]cnc2C1c1ccc2ccccc2n1` (stereo not drawn), under setting [1], the AC50 is 1000 to 5000 nM.

Consider `CC(C)(O)c1nc(Br)c(C(=O)N2CCc3[nH]cnc3C2c2ccc3ccccc3n2)o1` (stereo in doubt) [Example 98, (S)-(4-bromo-2-(2-hydroxypropan-2-yl)oxazol-5-yl)(4-(quinolin-2-yl)-6,7-dihydro-1H-imidazo[4,5-c]pyridin-5(4H)-yl)methanone], for which, under setting [2], the AC50 was 1000 to 5000 nM. Still for that read-out and setting: in the case of `CCn1cnnc1C(=O)N1CCc2[nH]cnc2C1c1ccc2ccccc2n1` (stereo in doubt) [Example 270, (R)-(4-ethyl-4H-1,2,4-triazol-3-yl)(4-(quinolin-2-yl)-6,7-dihydro-1H-imidazo[4,5-c]pyridin-5(4H)-yl)methanone] it was 500 to 1000 nM. For `O=C(N1CCc2[nH]cnc2C1c1cn2ccccc2n1)C(F)(F)C1(O)CCC1` (stereo not drawn), the AC50 under setting [1] lay within 1000 to 5000 nM.

For the molecule `O=C(c1cnn2cc(Br)ccc12)N1CCc2[nH]cnc2[C@H]1c1cc2ccccc2cn1` [Example 352, (R)-(6-bromopyrazolo[1,5-a]pyridin-3-yl)(4-(isoquinolin-3-yl)-6,7-dihydro-1H-imidazo[4,5-c]pyridin-5(4H)-yl)methanone], the AC50 under setting [2] is less than 500 nM. Still for that read-out and setting: in the case of `COc1ccc(-c2nnc(C(=O)N3C[C@H](C)c4[nH]cnc4[C@@H]3c3cc4ccccc4cn3)o2)nc1` [Example 515, ((4S,7S)-4-(isoquinolin-3-yl)-7-methyl-6,7-dihydro-1H-imidazo[4,5-c]pyridin-5(4H)-yl)(5-(5-methoxypyridin-2-yl)-1,3,4-oxadiazol-2-yl)methanone] it was 1000 to 5000 nM; in that of `O=C(C1CC1)N1CCc2[nH]cnc2[C@@H]1c1cc2ccccc2nn1` [Example 216, (R)-(4-(cinnolin-3-yl)-6,7-dihydro-1H-imidazo[4,5-c]pyridin-5(4H)-yl)(cyclopropyl)methanone], 1000 to 5000 nM. For `Cc1ncoc1C(=O)N1CCc2[nH]cnc2C1c1ncc2ccccc2n1` (stereo not drawn), under setting [1], the half-maximal activity concentration (AC50) lay within 1000 to 5000 nM.

On to `CC1CN(C(=O)c2nnc(N3CCC(F)CC3)o2)C(c2cc3ccccc3cn2)c2nc[nH]c21` (stereo not drawn), for which, under setting [1], the half-maximal activity concentration (AC50) was in the range of 1000 to 5000 nM.

For the molecule `C[C@H](O)c1nnc(C(=O)N2CCc3[nH]cnc3[C@H]2c2cc3ccccc3cn2)o1`, the concentration at half-maximal activity (AC50) under setting [1] lay within 1000 to 5000 nM. As for `Cc1cnn(C)c1-c1nnc(C(=O)N2CCc3[nH]cnc3[C@H]2c2cc3ccccc3cn2)o1` [Example 455, (R)-(5-(1,4-dimethyl-1H-pyrazol-5-yl)-1,3,4-oxadiazol-2-yl)(4-(isoquinolin-3-yl)-6,7-dihydro-1H-imidazo[4,5-c]pyridin-5(4H)-yl)methanone], the concentration at half-maximal activity (AC50) under setting [2] is less than 500 nM. Take `Cc1nc(C(C)(C)S(C)(=O)=O)oc1C(=O)N1CCc2[nH]cnc2C1c1ccc2ccccc2n1` (stereo not drawn): the concentration at half-maximal activity (AC50) under setting [1] lay in the range of 1000 to 5000 nM. Still for that read-out and setting: in the case of `O=C(c1nnc(-c2cn[nH]c2)o1)N1CCc2[nH]cnc2C1c1ccc2ccccc2n1` (stereo not drawn) it was 1000 to 5000 nM.

`O=C(Cc1cncs1)N1CCc2[nH]cnc2[C@H]1c1cc2ccccc2cn1` [Example 373, (R)-1-(4-(isoquinolin-3-yl)-6,7-dihydro-1H-imidazo[4,5-c]pyridin-5(4H)-yl)-2-(thiazol-5-yl)ethanone]: the AC50 under setting [2] is less than 500 nM. For the molecule `COCCc1ccc2c(C(=O)N3CCc4[nH]cnc4C3c3ccc4ccccc4n3)cnn2c1` (stereo not drawn), the AC50 under setting [1] was greater than 5000 nM.

With `CC(C)(O)c1cc(C(=O)N2CCc3[nH]cnc3[C@H]2c2cc3ccccc3cn2)on1`, the concentration at half-maximal activity (AC50) under setting [1] lay in the range of 1000 to 5000 nM. Still for that read-out and setting: in the case of `CC1CN(C(=O)c2cnn3cc(CN(C)C)ccc23)C(c2cc3ccccc3cn2)c2nc[nH]c21` (stereo not drawn) it was 1000 to 5000 nM. With `Cn1ncnc1C(=O)N1CCc2[nH]cnc2[C@H]1c1ncc2ccccc2n1` [Example 184, (S)-(1-methyl-1H-1,2,4-triazol-5-yl)(4-(quinazolin-2-yl)-6,7-dihydro-1H-imidazo[4,5-c]pyridin-5(4H)-yl)methanone], the concentration at half-maximal activity (AC50) under setting [2] was less than 500 nM. On to `Cn1cc(-c2nc(C3CC3)c(C(=O)N3CCCc4[nH]cnc4C3c3cc4ccccc4cn3)o2)cn1` (stereo not drawn), for which the half-maximal activity concentration (AC50) under setting [1] was 1000 to 5000 nM. In the case of `Cn1nc(C(F)F)cc1C(=O)N1CCc2[nH]cnc2C1c1ccc2ccccc2n1` (stereo in doubt) [Example 73, (R)-(3-(difluoromethyl)-1-methyl-1H-pyrazol-5-yl)(4-(quinolin-2-yl)-6,7-dihydro-1H-imidazo[4,5-c]pyridin-5(4H)-yl)methanone], the AC50 under setting [2] was 500 to 1000 nM. On the same count and under the same terms, in the case of `O=C(CCc1nnc(C(F)F)o1)N1CCc2[nH]cnc2[C@H]1c1cc2ccccc2cn1` [Example 346, (R)-3-(5-(difluoromethyl)-1,3,4-oxadiazol-2-yl)-1-(4-(isoquinolin-3-yl)-6,7-dihydro-1H-imidazo[4,5-c]pyridin-5(4H)-yl)propan-1-one] it was 1000 to 5000 nM.

As for `CC1CN(C(=O)c2oc(C(C)(C)O)nc2C(F)(F)F)C(c2cc3ccccc3cn2)c2nc[nH]c21` [(4S, 7R) diastereomer of (2-(2-hydroxypropan-2-yl)-4-(triflu], under “A375 R408W cells, 24 hrs with compound, then 20 μM sepiapterin and 800 μM 13C9,15N-Phenylalanine for 4 hours”, the half-maximal activity concentration (AC50) entry is “E, E”. With `CN(C)c1nnc(C(=O)N2CCc3[nH]cnc3C2c2ccc3ccccc3n2)o1` (stereo not drawn), the AC50 under setting [1] fell in the range of 1000 to 5000 nM. With `Cn1nc(C(F)F)nc1C(=O)N1CCc2[nH]cnc2[C@H]1c1ncc2ccccc2n1` [Example 276, (S)-(3-(difluoromethyl)-1-methyl-1H-1,2,4-triazol-5-yl)(4-(quinazolin-2-yl)-6,7-dihydro-1H-imidazo[4,5-c]pyridin-5(4H)-yl)methanone], the AC50 under setting [2] was less than 500 nM.

With `O=C(c1nnc(-c2ccc(F)cc2F)o1)N1CCc2[nH]cnc2C1c1ccc2ccccc2n1` (stereo in doubt) [Example 76, (S)-(5-(2,4-difluorophenyl)-1,3,4-oxadiazol-2-yl)(4-(quinolin-2-yl)-6,7-dihydro-1H-imidazo[4,5-c]pyridin-5(4H)-yl)methanone], the AC50 under setting [2] was greater than 5000 nM.

For the molecule `O=C(Cc1ccccn1)N1CCc2[nH]cnc2[C@H]1c1cc2ccccc2cn1` [Example 374, (R)-1-(4-(isoquinolin-3-yl)-6,7-dihydro-1H-imidazo[4,5-c]pyridin-5(4H)-yl)-2-(pyridin-2-yl)ethanone], the AC50 under setting [2] was less than 500 nM. Regarding `Cc1nnc(CC(=O)N2CCc3[nH]cnc3C2c2cn3ccccc3n2)s1` (stereo not drawn), the concentration at half-maximal activity (AC50) under setting [1] was greater than 5000 nM.

With `O=C(c1oc(-c2ccccn2)nc1C1CC1)N1CCc2[nH]cnc2C1c1ccc2ccccc2n1` (stereo in doubt) [Example 43, (R)-(4-cyclopropyl-2-(pyridin-2-yl)oxazol-5-yl)(4-(quinolin-2-yl)-6,7-dihydro-1H-imidazo[4,5-c]pyridin-5(4H)-yl)methanone], under setting [2], the half-maximal activity concentration (AC50) was less than 500 nM.
